Earlier results, collected in US20040126437A1, “Typing natural products” (priority 2000, published 2004).
Values after ≈ are worked out from the molar mass of the structure shown.

Legend:
[1] = system: insulated cavy trachea (ICT); details: ICT contracted with hystamine (1 μM); relaxation; cited from earlier work
H. pylori NTCT 11916 = details: strain NTCT 11916; cited from earlier work
[2] = system: fibrosarcoma (line HT-1080); details: HT1080 fibrosarcoma cells; cited from earlier work
H. pylori ATCC 43504 = details: strain ATCC 43504; cited from earlier work
[3] = system: uterus colon carcinoma (line L5-26); details: L5-26 colon cells; cited from earlier work
H. pylori NTCT 11637 = details: strain NTCT 11637; cited from earlier work
[4] = Hepatocytes; read-out: Hepatoprotection Effect IC50 μM (Hepatocytes); cited from earlier work
[5] = cited from earlier work

Molecule | Emax, tension [1] [g] | MIC (H. pylori mg/mL) NTCT 11916 (H. pylori NTCT 11916) [mg/mL] | Antitumor activity (LD50 μg/mL) HT1080 (Fibrosarcoma) [2] [µg/mL] | MIC (H. pylori mg/mL) ATCC 43504 (H. pylori ATCC 43504) [mg/mL] | Antitumor activity (LD50 μg/mL) L5-26 (Colon) [3] [µg/mL] | MIC (H. pylori mg/mL) NTCT 11637 (H. pylori NTCT 11637) [mg/mL] | IC50 [4] [µM] | Antioxidant Activity (DPPH) [5] [µg/mL]
2-[1-hydroxymethyl]vinyl-6-acetyl-5-hydroxy-coumaran | 1.06 ± 0.09 | – | – | – | – | – | – | –
CC(C)=CCc1cc(/C=C/C(=O)O)cc2c1OC(C)(C)C(O)C2 (centres unmarked) [Compound 1] | – | 0.25 (≈ 0.79 mM) | 71.53 | 0.25 (≈ 0.79 mM) | 77.07 | 0.13 (≈ 0.411 mM) | – | –
CC(C)=CCc1cc(/C=C/C(=O)O)cc2c1OC(C)(C)C=C2 [Compound 2] | – | 0.50 (≈ 1.68 mM) | 46.86 | 1.00 (≈ 3.35 mM) | 50.22 | 0.50 (≈ 1.68 mM) | 88.1 | –
CC1(C)C=Cc2cc(/C=C/C(=O)O)ccc2O1 [Compound 3] | – | >1 | >100 | >1 | >100 | >1 | – | –
CC1(C)C=Cc2cc(C(=O)O)ccc2O1 [Compound 4] | – | – | >100 | – | >100 | – | – | –
CC(C)=CCc1cc(/C=C/C(=O)O)cc(CC=C(C)C)c1O [Compound 5] | – | >1 | 45.47 | >1 | 59.32 | >1 | – | 5.6
CC(C)=CCc1cc(/C=C/C(=O)O)ccc1OC(=O)CCc1ccccc1 [Compound 6] | – | 0.50 (≈ 1.37 mM) | 25.94 | 0.50 (≈ 1.37 mM) | 77.90 | 0.25 (≈ 0.686 mM) | 26.9 | –
CC(C)=CCc1cc(/C=C/C(=O)O)ccc1O [Compound 7] | – | >1 | >100 | >1 | >100 | >1 | 34.6 | –
COc1cc(/C=C/C=O)ccc1O [Compound 9] | – | >1 | 4.05 | >1 | 10.44 | >1 | 45.8 | 11.1
C=C(C)[C@H]1Cc2cc(C(C)=O)ccc2O1 [Compound 16] | – | – | 57.40 | – | 58.09 | – | – | –
C=C(CO)[C@H]1Cc2cc(O)c(C(C)=O)cc2O1 [Compound 17] | – | >1 | 45.48 | >1 | 57.15 | >1 | – | –
C=C(COC(C)=O)[C@H]1Cc2cc(O)c(C(C)=O)cc2O1 [Compound 18] | – | 1.0 (≈ 3.62 mM) | >100 | 1.0 (≈ 3.62 mM) | >100 | 1.0 (≈ 3.62 mM) | – | –
